The compounds below were run against Aurora B/INCENP (Homo sapiens, UniProt Q96GD4) (assay: Determination of inhibition of AIK: Aurora B/INCENP Direct Fluorescence Polarization (IMAP) assay). Settings: 10 uM ATP, 0.8 nM Aurora B/INCENP, 45 min at room temperature; read-out: IC50 of Exemplified Compounds Against AIK B.
Format: biochemical
Method: Detection of the reaction product is performed by addition of Progressive IMAP binding reagent (Molecular Devices). Reaction product may be determined quantitatively by FP using an Analyst HT plate reader (Molecular Devices) with an excitation wavelength at 485 nm and emission at 530 nm and using a Fluorescein 505 dichroic mirror.
The assay reaction may be initiated as follows: 2 ul of (3×) 300 nM Fl-Peptide/30 uM ATP was added to each well of the plate, followed by the addition of 2 ul of (3×) inhibitor (2 fold serial dilutions for 11 data points for each inhibitor) containing 15% DMSO. Two microliters of (3×) 2.4 nM AuroraB/INCENP solution may be added to initiate the reaction (final enzyme concentration was 0.8 nM for Aurora B/INCENP). The reaction mixture may then be incubated at room temperature for 45 min, and quenched and developed by addition of 20 ul of 1 to 400 diluted Progressive IMAP binding reagent in 1× proprietary Progressive IMAP binding buffer A. Fluorescence polarization readings of the resulting reaction mixtures may be measured after a 60-minute incubation at room temperature.
IC50 values may be calculated by non-linear curve fitting of the compound concentrations and fluorescent polarization values to the standard IC50 equation.

Aurora B/INCENP, sequence (Q96GD4 whole entry): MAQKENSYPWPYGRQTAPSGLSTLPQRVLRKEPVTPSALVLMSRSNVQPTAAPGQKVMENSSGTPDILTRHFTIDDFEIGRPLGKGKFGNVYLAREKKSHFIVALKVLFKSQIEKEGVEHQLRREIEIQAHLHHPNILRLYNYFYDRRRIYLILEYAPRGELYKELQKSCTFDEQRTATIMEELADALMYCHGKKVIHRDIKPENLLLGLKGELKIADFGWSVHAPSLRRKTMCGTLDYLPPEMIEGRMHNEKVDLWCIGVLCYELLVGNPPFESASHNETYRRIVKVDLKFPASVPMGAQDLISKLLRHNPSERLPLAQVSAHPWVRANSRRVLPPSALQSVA
Aurora B/INCENP, sequence (Q9NQS7 whole entry partner): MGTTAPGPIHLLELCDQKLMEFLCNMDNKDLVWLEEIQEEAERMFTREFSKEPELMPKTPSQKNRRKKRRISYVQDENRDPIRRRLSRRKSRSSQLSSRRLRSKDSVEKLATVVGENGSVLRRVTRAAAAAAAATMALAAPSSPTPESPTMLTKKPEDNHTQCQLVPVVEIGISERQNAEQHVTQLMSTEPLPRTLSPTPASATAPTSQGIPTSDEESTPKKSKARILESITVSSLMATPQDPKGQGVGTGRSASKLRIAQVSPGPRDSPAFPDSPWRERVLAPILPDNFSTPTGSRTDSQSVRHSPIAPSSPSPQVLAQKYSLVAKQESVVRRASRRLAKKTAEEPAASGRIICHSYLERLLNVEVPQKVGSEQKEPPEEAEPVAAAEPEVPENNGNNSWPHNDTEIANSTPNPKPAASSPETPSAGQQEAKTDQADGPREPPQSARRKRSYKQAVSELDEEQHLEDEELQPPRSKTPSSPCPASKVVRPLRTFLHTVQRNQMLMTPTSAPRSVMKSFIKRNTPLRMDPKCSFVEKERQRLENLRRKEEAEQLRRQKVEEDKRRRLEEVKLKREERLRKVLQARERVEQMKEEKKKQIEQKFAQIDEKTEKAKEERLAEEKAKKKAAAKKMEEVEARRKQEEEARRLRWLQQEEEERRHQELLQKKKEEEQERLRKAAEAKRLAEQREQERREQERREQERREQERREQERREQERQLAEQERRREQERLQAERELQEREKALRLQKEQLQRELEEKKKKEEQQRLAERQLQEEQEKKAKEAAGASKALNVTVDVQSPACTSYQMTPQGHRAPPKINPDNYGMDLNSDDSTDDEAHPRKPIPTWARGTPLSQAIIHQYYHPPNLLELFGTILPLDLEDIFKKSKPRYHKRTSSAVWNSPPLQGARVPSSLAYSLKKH

IC50, ≤ 5 nM:
CCS(=O)(=O)c1cccc(-c2ccc(OCCCN(C)CCOP(=O)(O)O)c3[nH]c4ncc(C)cc4c23)c1 [Compound 308, 2-((3-(5-(3-(ethylsulfonyl)phenyl)-3-methyl-9H-pyrido[2,3-b]indol-8-yloxy)propyl)(methyl)amino)ethyl dihydrogen phosphate]
Cc1cnc2[nH]c3c(OC[C@H](CN(C)C)OP(=O)(O)O)ccc(-c4cccc(S(=O)(=O)C5CC5)c4)c3c2c1 [Compound 314, (S)-1-(5-(3-(cyclopropylsulfonyl)phenyl)-3-methyl-9H-pyrido[2,3-b]indol-8-yloxy)-3-(dimethylamino)propan-2-yl dihydrogen phosphate]
Cc1cnc2[nH]c3c(OC[C@@H](CN(C)C)OP(=O)(O)O)ccc(-c4cccc(S(=O)(=O)C5CC5)c4)c3c2c1 [Compound 315, (R)-1-(5-(3-(cyclopropylsulfonyl)phenyl)-3-methyl-9H-pyrido[2,3-b]indol-8-yloxy)-3-(dimethylamino)propan-2-yl dihydrogen phosphate]

— patent US20100120717A1, “KINASE INHIBITORS” (priority 2006, published 2010)
